Measurements reported in US20260078120A1, “SUBSTITUTED PYRIDOPYRIMIDINONES” (MIRATI THERAPEUTICS, INC., priority 2022, published 2026).

Experiments:
[1] = tested on: T47D (PI3Kα H1047R mutant) cells; test: CellTiter-Glo 2.0 luminescent cell viability assay, 72 hours, T47D cells; assay type: cell-based; details: Homo sapiens, T47D, 72 h, T47D (PI3Kα H1047R mutant) cells, CellTiter-Glo, approximately 72 hours; read-out: T47D (H1047R mutant) Viability IC50
Summary of the method: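 Cells seeded at 1000 per well overnight were dosed with a 10-concentration, 1:4 series starting at 10 µM and incubated ~72 h at 37° C. Viability was read by CellTiter-Glo 2.0 luminescence after 30 min at room temperature. IC50 came from four-parameter fits of percent vehicle control.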

[2] = tested on: SKBR3 (PI3Kα wild type) cells; test: CellTiter-Glo 2.0 luminescent cell viability assay, 72 hours, SKBR3 cells; assay type: cell-based; details: Homo sapiens, SK-BR-3, 72 h, SKBR3 (PI3Kα wild type) cells, CellTiter-Glo, approximately 72 hours; read-out: SKBR3 (WT) Viability IC50
Summary of the method: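 Viability measured via CTG luminescence following roughly 72 hours of compound exposure at 37° C. Dosing used a 10 um starting concentration diluted 1:4 over 10 points; percent-of-vehicle data fitted with a variable-slope four-parameter model for IC50.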

SMILES | IC50 [1] | IC50 [2]
Cc1cc([C@@H](C)Nc2ccccc2C(=O)O)c2nc(N3CCN(c4ccccc4C)CC3)c(C)c(=O)n2c1 [Example 11-267, (R)-2-((1-(3,7-dimethyl-4-oxo-2-(4-(o-tolyl)piperazin-1-yl)-4H-pyrido[1,2-a]pyrimidin-9-yl)ethyl)amino)benzoic acid] | 0.236 µM | > 10 µM
Cc1cc([C@@H](C)Nc2ccccc2C(=O)O)c2nc(N3CC[C@@H](C)C(F)(F)C3)c(C)c(=O)n2c1 [Example 11-59, 2-(((R)-1-(2-((R)-3,3-difluoro-4-methylpiperidin-1-yl)-3,7-dimethyl-4-oxo-4H-pyrido[1,2-a]pyrimidin-9-yl)ethyl)amino)benzoic acid] | 0.273 µM | > 10 µM
Cc1cc([C@@H](C)Nc2ccc(Cl)nc2C(=O)O)c2nc(N3CCN(c4ccc(C#N)cc4)C[C@@H]3C)c(C#N)c(=O)n2c1 [Example 11-129, 6-chloro-3-(((R)-1-(3-cyano-2-((S)-4-(4-cyanophenyl)-2-methylpiperazin-1-yl)-7-methyl-4-oxo-4H-pyrido[1,2-a]pyrimidin-9-yl)ethyl)amino)picolinic acid] | 0.961 µM | > 10 µM
Cc1cc([C@@H](C)Nc2ccccc2C(=O)O)c2nc(N3CCC4(CCCO4)CC3)c(C)c(=O)n2c1 [Example 11-63, (R)-2-((1-(3,7-dimethyl-4-oxo-2-(1-oxa-8-azaspiro[4.5]decan-8-yl)-4H-pyrido[1,2-a]pyrimidin-9-yl)ethyl)amino)benzoic acid] | 0.136 µM | > 10 µM
Cc1cc([C@@H](C)Nc2ccccc2C(=O)O)c2nc(N3CCC(O)CC3)c(C#N)c(=O)n2c1 [Example 11-312, (R)-2-((1-(3-cyano-2-(4-hydroxypiperidin-1-yl)-7-methyl-4-oxo-4H-pyrido[1,2-a]pyrimidin-9-yl)ethyl)amino)benzoic acid] | 5.08 µM | > 10 µM
Cc1cc([C@@H](C)Nc2ccccc2C(=O)O)c2nc(N3CC(F)(F)C(F)(F)C3)c(C#N)c(=O)n2c1 [Example 11-136, (R)-2-((1-(3-cyano-7-methyl-4-oxo-2-(3,3,4,4-tetrafluoropyrrolidin-1-yl)-4H-pyrido[1,2-a]pyrimidin-9-yl)ethyl)amino)benzoic acid] | 0.162 µM | > 10 µM
Cc1cc([C@@H](C)Nc2ccccc2C(=O)O)c2nc(C3CCN(C)CC3)c(C)c(=O)n2c1 [Example 11-149, (R)-2-((1-(3,7-dimethyl-2-(1-methylpiperidin-4-yl)-4-oxo-4H-pyrido[1,2-a]pyrimidin-9-yl)ethyl)amino)benzoic acid] | > 10 µM | > 10 µM
Cc1cc([C@@H](C)OC(=O)c2nc(Cl)ccc2N)c2nc(N3CCCCC3)c(C#N)c(=O)n2c1 [Example 11-330, (R)-1-(3-cyano-7-methyl-4-oxo-2-(piperidin-1-yl)-4H-pyrido[1,2-a]pyrimidin-9-yl)ethyl 3-amino-6-chloropicolinate] | > 10 µM | > 10 µM
Cc1cc([C@@H](C)Nc2ccccc2C(=O)O)c2nc(N3CC4(C3)CC4(F)F)c(C#N)c(=O)n2c1 [Example 11-102, (R)-2-((1-(3-cyano-2-(1,1-difluoro-5-azaspiro[2.3]hexan-5-yl)-7-methyl-4-oxo-4H-pyrido[1,2-a]pyrimidin-9-yl)ethyl)amino)benzoic acid] | 0.13 µM | > 10 µM
Cc1cc([C@@H](C)Nc2ccccc2C(=O)O)c2nc(C3=CCN(C)CC3)c(C)c(=O)n2c1 [Example 11-148, (R)-2-((1-(3,7-dimethyl-2-(1-methyl-1,2,3,6-tetrahydropyridin-4-yl)-4-oxo-4H-pyrido[1,2-a]pyrimidin-9-yl)ethyl)amino)benzoic acid] | 1.19 µM | > 10 µM
Cc1cc([C@@H](C)Nc2ccccc2C(=O)O)c2nc(N3C4CNCC3C4)c(C#N)c(=O)n2c1 [Example 11-178, 2-(((1R)-1-(2-(3,6-diazabicyclo[3.1.1]heptan-6-yl)-3-cyano-7-methyl-4-oxo-4H-pyrido[1,2-a]pyrimidin-9-yl)ethyl)amino)benzoic acid] | ≥ 10 µM | > 10 µM
